Tests used:
Format in all cases: in vitro ADME
[1] = Microsomal stability assay, human liver microsomes; conditions: for CLINT human: human liver microsomes 0.5 mg/mL, 1 μM compound; for CLHEP human: predicted hepatic clearance, human microsomes
[2] = Microsomal stability assay, rat liver microsomes; conditions: for CLHEP rat: predicted hepatic clearance, rat microsomes; for CLINT rat: rat liver microsomes 0.5 mg/mL, 1 μM compound
[3] = Microsomal stability assay, mouse liver microsomes
[4] = male, CD-1, mouse, 1 μM, pH 7.4
[5] = mouse liver microsomes 0.5 mg/mL, 1 μM compound
[6] = predicted hepatic clearance, mouse microsomes

**Q.** Which results are given for CS(=O)(=O)c1ccc(-c2nnc(-c3ccc(C(=O)N[C@@H](Cn4ccnc4)c4ccc(Cl)cc4Cl)cc3)o2)cc1Cl [Compound 14, (R)-4-(5-(3-Chloro-4-(methylsulfonyl)phenyl)-1,3,4-oxadiazol-2-yl)-N-(1-(2,4-dichlorophenyl)-2-(1H-imidazol-1-yl)ethyl)benzamide]?
**A.** CLINT human [1]: 9.31 mL/min/kg body weight; CLHEP human [1]: 6.45 mL/min/kg body weight; CLHEP rat [2]: 42 mL/min/kg body weight; CLINT rat [2]: 104 mL/min/kg body weight; CLHEP mouse [3, 4]: 34.5 mL/min/kg body weight; CLINT mouse ([3]; mouse, microsomes): 56 mL/min/kg body weight

**Q.** With O=C(N[C@@H](Cn1ccnc1)c1ccc(Cl)cc1Cl)c1ccc(-c2nnc(-c3cc(F)cc(-c4ncncc4F)c3)o2)cc1 [Compound 15, (R)-N-(1-(2,4-Dichlorophenyl)-2-(1H-imidazol-1-yl)ethyl)-4-(5-(3-fluoro-5-(5-fluoropyrimidin-4-yl)phenyl)-1,3,4-oxadiazol-2-yl)-benzamide] as the molecule, how does the CLINT human [1] read?
**A.** Its CLINT human is 14.9 mL/min/kg body weight.

**Q.** What about the CLHEP human [1] of the same molecule?
**A.** Its CLHEP human is 8.37 mL/min/kg body weight.

**Q.** And the CLHEP rat [2]?
**A.** The CLHEP rat was 19.5 mL/min/kg body weight.

**Q.** And the CLINT rat [2]?
**A.** The CLINT rat was 27.0 mL/min/kg body weight.

**Q.** And the CLINT mouse [3, 5]?
**A.** The CLINT mouse was 104 mL/min/kg body weight.

**Q.** And the CLHEP mouse [3, 6]?
**A.** The CLHEP mouse was 48.3 mL/min/kg body weight.

**Q.** Which results are given for O=C(N[C@@H](Cn1ccnc1)c1ccc(Cl)cc1Cl)c1ccc(-c2nnc(-c3cc(F)cc(OCC(F)(F)F)c3)o2)cc1 [Compound 4, (R)-N-(1-(2,4-Dichlorophenyl)-2-(1H-imidazol-1-yl)ethyl)-4-(5-(3-fluoro-5-(2,2,2-trifluoroethoxy)phenyl)-1,3,4-oxadiazol-2-yl)-benzamide]?
**A.** CLINT human [1]: 11.3 mL/min/kg body weight; CLHEP human [1]: 7.33 mL/min/kg body weight; CLHEP rat [2]: 29 mL/min/kg body weight; CLINT rat [2]: 50.4 mL/min/kg body weight; CLHEP mouse [3, 4]: 43.6 mL/min/kg body weight; CLINT mouse ([3]; mouse, microsomes): 84.7 mL/min/kg body weight

**Q.** With O=C(N[C@@H](Cn1ccnc1)c1ccc(Cl)cc1Cl)c1ccc(-c2nnc(-c3ccc(C(F)(F)F)c(F)c3)o2)cc1 [Compound 2, (R)-N-(1-(2,4-Dichlorophenyl)-2-(1H-imidazol-1-yl)ethyl)-4-(5-(3-fluoro-4-(trifluoromethyl)phenyl)-1,3,4-oxadiazol-2-yl)benzamide] as the molecule, how does the CLINT human [1] read?
**A.** Its CLINT human is 6.06 mL/min/kg body weight.

**Q.** What about the CLHEP human [1] of the same molecule?
**A.** Its CLHEP human is 4.07 mL/min/kg body weight.

**Q.** What about the CLHEP rat [2] of the same molecule?
**A.** Its CLHEP rat is 24 mL/min/kg body weight.

**Q.** What about the CLINT rat [2] of the same molecule?
**A.** Its CLINT rat is 36 mL/min/kg body weight.

**Q.** And the CLINT mouse [3, 5]?
**A.** Its CLINT mouse is 60 mL/min/kg body weight.

**Q.** And the CLHEP mouse [3, 6]?
**A.** The CLHEP mouse was 36 mL/min/kg body weight.

**Q.** Which CLINT human [1] does the source give for O=C(N[C@@H](Cn1ccnc1)c1ccc(Cl)cc1Cl)c1ccc(-c2nnc(-c3ccc(-c4ccccn4)cc3F)o2)cc1 [Compound 12, (R)-N-(1-(2/4-Dichlorophenyl)-2-(1H-imidazol-1-yl)ethyl)-4-(5-(4-(3-fluoropyridin-2-yl)phenyl)-1,3,4-oxadiazol-2-yl)benzamide] here?
**A.** The CLINT human was 15 mL/min/kg body weight.

**Q.** What about the CLHEP human [1] of the same molecule?
**A.** Its CLHEP human is 8.75 mL/min/kg body weight.

**Q.** And the CLHEP rat [2]?
**A.** Its CLHEP rat is 29.7 mL/min/kg body weight.

**Q.** What about the CLINT rat [2] of the same molecule?
**A.** Its CLINT rat is 51.6 mL/min/kg body weight.

**Q.** What about the CLINT mouse [3, 5] of the same molecule?
**A.** Its CLINT mouse is 36.5 mL/min/kg body weight.

**Q.** And the CLHEP mouse [3, 6]?
**A.** The CLHEP mouse was 26.0 mL/min/kg body weight.

**Q.** For O=C(N[C@@H](Cn1ccnc1)c1ccc(Cl)cc1Cl)c1ccc(-c2nnc(-c3cc(-c4ccccn4)ccc3F)o2)cc1 [Compound 13, (R)-N-(l-(2,4-Dichlorophenyl)-2-(TH-imidazol-l-yl)ethyl)-4-(5-(2-fluoro-5-(pyridin-2-yl)phenyl)-1,3,4-oxadiazol-2-yl)benzamide], which CLINT human [1] is on record?
**A.** The CLINT human was 10.2 mL/min/kg body weight.

**Q.** And the CLHEP human [1]?
**A.** The CLHEP human was 6.85 mL/min/kg body weight.

**Q.** What about the CLHEP rat [2] of the same molecule?
**A.** The CLHEP rat was 29.0 mL/min/kg body weight.

**Q.** What about the CLINT rat [2] of the same molecule?
**A.** Its CLINT rat is 49.4 mL/min/kg body weight.

**Q.** And the CLINT mouse [3, 5]?
**A.** Its CLINT mouse is 238 mL/min/kg body weight.

**Q.** And the CLHEP mouse [3, 6]?
**A.** Its CLHEP mouse is 65 mL/min/kg body weight.

**Q.** Which CLINT human [1] does the source give for O=C(N[C@@H](Cn1ccnc1)c1ccc(Cl)cc1Cl)c1ccc(-c2nnc(-c3ccc(Cl)c(Cl)c3)o2)cc1 [Compound 5, (R)-4-(5-(3,4-Dichlorophenyl)-1,3,4-oxadiazol-2-yl)-N-(1-(2,4-di-chlorophenyl)-2-(1H-imidazol-1-yl)ethyl)benzamide] here?
**A.** Its CLINT human is 11.4 mL/min/kg body weight.

**Q.** What about the CLHEP human [1] of the same molecule?
**A.** Its CLHEP human is 7.39 mL/min/kg body weight.

**Q.** And the CLHEP rat [2]?
**A.** The CLHEP rat was 35 mL/min/kg body weight.

**Q.** And the CLINT rat [2]?
**A.** Its CLINT rat is 70 mL/min/kg body weight.

**Q.** What about the CLHEP mouse [3, 4] of the same molecule?
**A.** The CLHEP mouse was 49 mL/min/kg body weight.

**Q.** What about the CLINT mouse ([3]; mouse, microsomes) of the same molecule?
**A.** The CLINT mouse was 107 mL/min/kg body weight.

**Q.** Which results are given for O=C(N[C@@H](Cn1ccnc1)c1ccc(Cl)cc1Cl)c1ccc(-c2nnc(-c3cc(F)cc(-c4ccccn4)c3)o2)cc1 [Compound 11, (R)-N-(1-(2,4-Dichlorophenyl)-2-(1H-imidazol-1-yl)ethyl)-4-(5-(3-fluoro-5-(pyridin-2-yl)phenyl)-1,3,4-oxadiazol-2-yl)benzamide]?
**A.** CLINT human [1]: 96.6 mL/min/kg body weight; CLHEP human [1]: 17.3 mL/min/kg body weight; CLHEP rat [2]: 24.0 mL/min/kg body weight; CLINT rat [2]: 36.0 mL/min/kg body weight; CLINT mouse [3, 5]: 55.0 mL/min/kg body weight; CLHEP mouse [3, 6]: 34 mL/min/kg body weight

**Q.** What does the source list for O=C(N[C@@H](Cn1ccnc1)c1ccc(Cl)cc1Cl)c1ccc(-c2nnc(-c3cccc(-c4ccccn4)c3)o2)cc1 [Compound 9, (R)-N-(1-(2,4-Dichlorophenyl)-2-(1H-imidazol-1-yl)ethyl)-4-(5-(3-(pyridin-2-yl)phenyl)-1,3,4-oxadiazol-2-yl)benzamide]?
**A.** CLINT human [1]: 13.1 mL/min/kg body weight; CLHEP human [1]: 8.06 mL/min/kg body weight; CLHEP rat [2]: 35 mL/min/kg body weight; CLINT rat [2]: 68 mL/min/kg body weight; CLHEP mouse [3, 4]: 56 mL/min/kg body weight; CLINT mouse ([3]; mouse, microsomes): 152 mL/min/kg body weight

**Q.** Which CLINT human [1] does the source give for O=C(N[C@@H](Cn1ccnc1)c1ccc(Cl)cc1Cl)c1ccc(-c2nnc(-c3ccc(F)c(F)c3)o2)cc1 [Compound 1, (R)-N-(1-(2,4-Dichlorophenyl)-2-(1H-imidazol-1-yl)ethyl)-4-(5-(3,4-difluorophenyl)-1,3,4-oxadiazol-2-yl)benzamide] here?
**A.** The CLINT human was 7.53 mL/min/kg body weight.

**Q.** What about the CLHEP human [1] of the same molecule?
**A.** The CLHEP human was 5.54 mL/min/kg body weight.

**Q.** What about the CLHEP rat [2] of the same molecule?
**A.** Its CLHEP rat is 21 mL/min/kg body weight.

**Q.** And the CLINT rat [2]?
**A.** The CLINT rat was 31 mL/min/kg body weight.

**Q.** What about the CLINT mouse [3, 5] of the same molecule?
**A.** Its CLINT mouse is 55 mL/min/kg body weight.

**Q.** And the CLHEP mouse [3, 6]?
**A.** The CLHEP mouse was 34 mL/min/kg body weight.

**Q.** Which results are given for O=C(N[C@@H](Cn1ccnc1)c1ccc(Cl)cc1Cl)c1ccc(-c2nnc(-c3ccccc3)o2)cc1 [VNI, (R)-N-(1-(2,4-dichlorophenyl)-2-(1H−imidazol-1-yl)ethyl)-4-(5-phenyl-1,3,4-oxadiazol-2-yl)-benzamide, reference compound]?
**A.** CLINT human [1]: 8.31 mL/min/kg body weight; CLHEP human [1]: 5.95 mL/min/kg body weight; CLHEP rat [2]: 19.2 mL/min/kg body weight; CLINT rat [2]: 26.4 mL/min/kg body weight; CLINT mouse [3, 5]: 87 mL/min/kg body weight; CLHEP mouse [3, 6]: 44 mL/min/kg body weight

**Q.** Which results are given for O=C(N[C@@H](Cn1ccnc1)c1ccc(Cl)cc1Cl)c1ccc(-c2nnc(-c3ccc(OCC(F)(F)F)cc3F)o2)cc1 [Compound 3, (R)-N-(1-(2,4-Dichlorophenyl)-2-(1H-imidazol-1-yl)ethyl)-4-(5-(2-fluoro-4-(2,2,2-trifluoroethoxy)phenyl)-1,3,4-oxadiazol-2-yl)-benzamide]?
**A.** CLINT human [1]: 16.5 mL/min/kg body weight; CLHEP human [1]: 9.24 mL/min/kg body weight; CLHEP rat [2]: 34 mL/min/kg body weight; CLINT rat [2]: 64 mL/min/kg body weight; CLINT mouse [3, 5]: 88 mL/min/kg body weight; CLHEP mouse [3, 6]: 44 mL/min/kg body weight

**Q.** With O=C(N[C@@H](Cn1ccnc1)c1ccc(Cl)cc1Cl)c1ccc(-c2nnc(-c3cccc(Br)c3)o2)cc1 [Compound 6, (R)-4-(5-(3-Bromophenyl)-1,3,4-oxadiazol-2-yl)-N-(1-(2,4-di-chlorophenyl)-2-(1H-imidazol-1-yl)ethyl)benzamide] as the molecule, how does the CLINT human [1] read?
**A.** Its CLINT human is 9.47 mL/min/kg body weight.

**Q.** What about the CLHEP human [1] of the same molecule?
**A.** Its CLHEP human is 6.53 mL/min/kg body weight.

**Q.** And the CLHEP rat [2]?
**A.** Its CLHEP rat is 19 mL/min/kg body weight.

**Q.** And the CLINT rat [2]?
**A.** The CLINT rat was 27 mL/min/kg body weight.

**Q.** What about the CLINT mouse [3, 5] of the same molecule?
**A.** The CLINT mouse was 126 mL/min/kg body weight.

**Q.** And the CLHEP mouse [3, 6]?
**A.** The CLHEP mouse was 55 mL/min/kg body weight.

**Q.** What does the source list for O=C(N[C@@H](Cn1ccnc1)c1ccc(Cl)cc1Cl)c1ccc(-c2nnc(-c3ccc(-c4ccccn4)cc3)o2)cc1 [Compound 10, (R)-N-(1-(2,4-Dichlorophenyl)-2-(1H-imidazol-1-yl)ethyl)-4-(5-(4-(pyridin-2-yl)phenyl)-1,3,4-oxadiazol-2-yl)benzamide]?
**A.** CLINT human [1]: 10.8 mL/min/kg body weight; CLHEP human [1]: 7.15 mL/min/kg body weight; CLHEP rat [2]: 40 mL/min/kg body weight; CLINT rat [2]: 94 mL/min/kg body weight; CLINT mouse [3, 5]: 95 mL/min/kg body weight; CLHEP mouse [3, 6]: 46 mL/min/kg body weight
